Measured values reported in patent US20110230430A1, “SAPONIN EXTRACT FROM SAPONARIA SPP. AND USES THEREOF” (NATIONAL RESEARCH COUNCIL OF CANADA, priority 2008, published 2011).

Key:
Assay type in all cases: cell-based, human
CRL-2522 cells = assay: APO LOGIX Carboxyfluorescein Caspase 9 Detection Kit in CRL-2522 cells
Description: In a still further apoptotic assay, apoptosis can be measured by the APO LOGIX™ Carboxyfluorescein Caspase 9 Detection Kit. The APO LOGIX™ Carboxyfluorescein Caspase 9 Detection Kit uses a cell permeable carboxyfluorescein labeled caspase inhibitor, which binds covalently to active caspases 9. Caspase 9 is involved in initiating apoptosis through the mitochondrial pathway (Budihardjo I., et al. 1999). Cells that contain bound inhibitor are detected by an increase in fluorescence when samples are analyzed by flow cytometry.
CRL-2522 cells, acquired from ATCC, (American Type Culture Collection) are normal fibroblast cells that originated from human foreskin. CRL-2522 cells were maintained in RPMI 1640 medium (Gibco) supplemented with 10% fetal bovine serum (Cansera), 100 U/mL penicillin, 100 μg/mL streptomycin and 0.25 μg/mL amphotericin B. Cultures were maintained in medium at 37° C. with 5% CO2 and 100% relative humidity.
CRL-2522 cells were treated with PC1448 and assayed for apoptosis as described above for PC-3 cells.

WiDr colon cancer cells = assay: Dual Sensor: MitoCasp Assay in WiDr colon cancer cells; conditions: 2.5 μM, 5.0 μM, 10 μM, and 15 μM, 24 hours
Description: (§1) Techniques to assay enzymatic and signaling processes involved in apoptosis have been developed as standard protocols. One example of an early step in apoptosis, is the release of cytochrome C from mitochondria and the activation of caspase-3. Induction of the caspases (a series of cytosolic proteases) is one of the most consistently observed features of apoptosis. Caspases are a family of proteolytic enzymes that transmit the apoptotic signal using a proteolytic cascade. […] Caspases 3 and 7 are effector caspases, central to the caspase cascade pathways. In particular, caspase-3 plays a central role in the process. When caspases are activated, they cleave target proteins; one of the most important of these is poly-(ADP-ribose) polymerase (PARP), which is a protein located in the nucleus. […] Collapse of the mitochondrial membrane potential during apoptosis prevents the dye from accumulating in the mitochondria resulting in a decrease in fluorescent intensity that can be detected with flow cytometry. […] In this assay, caspase 3/7 activity is detected using a cell permeable carboxyfluorescein labeled caspase inhibitor, which binds covalently to active caspases 3 and 7. Cells that contain bound inhibitor are detected by an increase in fluorescence when samples are analyzed by flow cytometry. […]

[1] = system: PC-3 (prostate cancer) cells; assay: Hoechst 33342 staining of PC-3 cells; conditions: 7 μM PC1448, 24 hours
Description: (§2) Apoptosis can also be measured by Hoechst 33342 Staining. Cells undergoing apoptosis show several characteristic morphological changes. These changes include cell shrinkage and rounding, and the formation of cytoplasmic blebs on the cell surface. Nuclear material condenses along the edge of the nucleus followed by complete condensation and nuclear fragmentation (Hacker, G., 2000). Apoptotic cells eventually break up into membrane bound vesicles, which are known as apoptotic bodies. Hoechst 33342 is a fluorescent DNA-binding dye that allows visualization of chromatin distribution within a cell. Apoptotic nuclei have highly condensed chromatin, often in crescent shapes around the periphery of the nucleus.
(§3) A further indication of apoptotic activity, in addition to the assays described above, can be derived from observations of changes in cell architecture evident after induction of apoptosis. Hoechst 33342 is a fluorescent DNA-binding dye that allows visualization of chromatin distribution within a cell.
(§4) Cells undergoing apoptosis show several characteristic morphological changes. These changes include cell shrinkage and rounding, and the formation of cytoplasmic blebs on the cell surface. Nuclear material condenses along the edge of the nucleus followed by complete condensation and nuclear fragmentation (Hacker, G., 2000). […]

[2] = system: MDA-MB-231 (breast cancer) cells; assay: Hoechst 33342 staining of MDA-MB-231 cells; conditions: 7 μM PC1448, 24 hours
Description: as §2, §3, §4

[3] = system: CRL-2522 (normal fibroblast) cells; assay: Hoechst 33342 staining of CRL-2522 cells; conditions: 7 μM PC1448, 24 hours
Description: as §2, §3, §4

MCF-7 cells = assay: Dual Sensor: MitoCasp Assay in MCF-7 breast cancer cells; conditions: 5 and 10 μM, 24 hours
Description: as §1, with “process.” for “process. When caspases are activated, they cleave target proteins; one of the most important of these is poly-(ADP-ribose) polymerase (PARP), which is a protein located in the nucleus.”
MCF-7 cells were treated with 5.0 μM and 10 μM of saponins PC1526, PC1464 and PC1422 for 24 hours and assessed using Dual Sensor: MitoCasp™ Assay.

| Substance | Change in Caspase 9 positive cells (in words) (CRL-2522 cells; 14 μM PC1448, 10 to 48 hr) | Caspase 9 positive cells (CRL-2522 cells; 14 μM PC1448, 10 hr) [%] | Caspase 9 positive cells (CRL-2522 cells; 14 μM PC1448, 24 hr) [%] | Caspase 9 positive cells (CRL-2522 cells; 14 μM PC1448, 48 hr) [%] | Induction of apoptosis (in words, FIG. 8) (WiDr colon cancer cells) | Nuclear morphology after Hoechst 33342 staining (in words, FIG. 4) [1] | Nuclear morphology after Hoechst 33342 staining (in words, FIG. 4) [2] | Nuclear morphology after Hoechst 33342 staining (in words, FIG. 4) [3] | Induction of apoptosis (in words, FIG. 16) (MCF-7 cells) |
| --- | --- | --- | --- | --- | --- | --- | --- | --- | --- |
| Segetoside H [PC1448] | No increase in Caspase 9 positive cells | 15.9 | 10.6 | 9.5 | induces apoptosis | nuclear changes characteristic of apoptotic cells | nuclear changes characteristic of apoptotic cells | nuclear changes characteristic of apoptotic cells |  |
| Segetoside I [PC1464] |  |  |  |  |  |  |  |  | do not induce apoptosis |
